Measured values as given in patent US10604554B2, “Double-acylated GLP-1 derivatives” (Novo Nordisk A/S, priority 2012, dated 2020).
Numbered stars: 1 amine (or outer) side, 2 acyl side, 3 side chain; on linkers, the order of the positions; unused ones are H or OH. Square brackets hold non-standard residues; d marks the D form. Side chains are listed from the residue outwards. Peptide text beside a SMILES is read from it. * marks the point of attachment. Decanoyl(10-(4-HOOC-PhO)) = O=C(O)c1ccc(OCCCCCCCCCC(=O)*)cc1; γGlu = O=C(O)[C@H](CCC(=O)[*:2])N[*:1]; εLys = N[C@@H](CCCCN[*:1])C(=O)[*:2]; AEEA = NCCOCCOCC(=O)O; Aib = CC(C)(N)C(=O)O

Target: T1, human GLP-1 receptor (Homo sapiens, UniProt P43220)
T1 construct: expressed in transfected cells; host or cells: BHK cells, clone FCW467-12A/KZ10-1 (parent line BHKTS13), further transfected with CRE luciferase
T1 sequence (P43220 24-463): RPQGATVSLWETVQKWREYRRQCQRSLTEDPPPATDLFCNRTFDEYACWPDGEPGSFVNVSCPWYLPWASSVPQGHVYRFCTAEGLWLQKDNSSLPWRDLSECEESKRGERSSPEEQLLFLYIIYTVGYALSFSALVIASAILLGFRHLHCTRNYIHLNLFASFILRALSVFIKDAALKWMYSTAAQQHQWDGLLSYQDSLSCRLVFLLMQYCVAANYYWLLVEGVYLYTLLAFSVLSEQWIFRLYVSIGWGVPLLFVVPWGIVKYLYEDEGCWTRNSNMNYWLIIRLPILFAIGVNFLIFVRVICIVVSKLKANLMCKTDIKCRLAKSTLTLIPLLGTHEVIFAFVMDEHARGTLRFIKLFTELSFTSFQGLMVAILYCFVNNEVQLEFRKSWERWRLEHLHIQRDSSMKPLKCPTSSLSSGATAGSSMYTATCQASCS
Assay: In vitro potency (AlphaScreen cAMP, membranes)
Type: biochemical
Procedure, shortened: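 AlphaScreen competition read-out (anti-cAMP acceptor beads vs biotinylated cAMP, 3 h room temperature) quantified cAMP made by human GLP-1 receptor membranes, 6 μg/well, from stably transfected BHK467-12A cells. Buffer pH 7.4 contained 1 mM ATP, 1 μM GTP, 0.5 mM IBMX and 0.1% BSA; cAMP standard curve included.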

Structure (SMILES) | EC50 [pM]
CC[C@H](C)[C@H](NC(=O)[C@H](Cc1ccccc1)NC(=O)[C@H](CCC(=O)O)NC(=O)[C@H](CCCCNC(=O)[C@@H](N)CCCCNC(=O)CC[C@H](NC(=O)CC[C@H](NC(=O)CC[C@H](NC(=O)CCCCCCCCCCCOc1ccc(C(=O)O)cc1)C(=O)O)C(=O)O)C(=O)O)NC(=O)[C@H](C)NC(=O)[C@H](C)NC(=O)[C@H](CCC(N)=O)NC(=O)CNC(=O)[C@H](CCC(=O)O)NC(=O)[C@H](CC(C)C)NC(=O)[C@H](Cc1ccc(O)cc1)NC(=O)[C@H](CO)NC(=O)[C@H](CO)NC(=O)[C@@H](NC(=O)[C@H](CC(=O)O)NC(=O)[C@H](CO)NC(=O)[C@@H](NC(=O)[C@H](Cc1ccccc1)NC(=O)[C@@H](NC(=O)CNC(=O)[C@H](CCC(=O)O)NC(=O)C(C)(C)NC(=O)[C@@H](N)Cc1c[nH]cn1)[C@@H](C)O)[C@@H](C)O)C(C)C)C(=O)N[C@@H](C)C(=O)N[C@@H](Cc1c[nH]c2ccccc12)C(=O)N[C@@H](CC(C)C)C(=O)N[C@H](C(=O)N[C@@H](CCCNC(=N)N)C(=O)NCC(=O)N[C@@H](CCCNC(=N)N)C(=O)N[C@@H](CCCCNC(=O)[C@@H](N)CCCCNC(=O)CC[C@H](NC(=O)CC[C@H](NC(=O)CC[C@H](NC(=O)CCCCCCCCCCCOc1ccc(C(=O)O)cc1)C(=O)O)C(=O)O)C(=O)O)C(=O)O)C(C)C [Example 17, N^ε26-[(2S)-2-amino-6-[[(4S)-4-carboxy-4-[[(4S)-4-carboxy-4-[[(4S)-4-carboxy-4-[12-(4-carboxyphenoxy)dodecanoylamino]butanoyl]amino]butanoyl]amino]butanoyl]amino]hexanoyl], N^ε37-[(2S)-2-amino-6-[[(4S)-4-carboxy-4-[[(4S)-4-carboxy-4-[[(4S)-4-carboxy-4-[12-(4-carboxyphenoxy)dodecanoylamino]butanoyl]amino]butanoyl]amino]butanoyl]amino]hexanoyl]-[Aib^8,Arg^34,Lys^37]-GLP-1-(7-37)-peptide] | 286
CC[C@H](C)[C@H](NC(=O)[C@H](Cc1ccccc1)NC(=O)[C@H](CCC(=O)O)NC(=O)[C@H](CCCCNC(=O)[C@@H](N)CCCCNC(=O)COCCOCCNC(=O)COCCOCCNC(=O)CC[C@H](NC(=O)CCCCCCCCCOc1ccc(C(=O)O)cc1)C(=O)O)NC(=O)[C@H](C)NC(=O)[C@H](C)NC(=O)[C@H](CCC(N)=O)NC(=O)[C@H](CCC(=O)O)NC(=O)[C@H](CCC(=O)O)NC(=O)[C@H](CC(C)C)NC(=O)[C@H](Cc1ccc(O)cc1)NC(=O)[C@H](CO)NC(=O)[C@H](CO)NC(=O)[C@@H](NC(=O)[C@H](CC(=O)O)NC(=O)[C@H](CO)NC(=O)[C@@H](NC(=O)[C@H](Cc1ccccc1)NC(=O)[C@@H](NC(=O)CNC(=O)[C@H](CCC(=O)O)NC(=O)C(C)(C)NC(=O)[C@@H](N)Cc1c[nH]cn1)[C@@H](C)O)[C@@H](C)O)C(C)C)C(=O)N[C@@H](C)C(=O)N[C@@H](Cc1c[nH]c2ccccc12)C(=O)N[C@@H](CC(C)C)C(=O)N[C@H](C(=O)N[C@@H](CCC(N)=O)C(=O)NCC(=O)N[C@@H](CCCNC(=N)N)C(=O)N[C@@H](CCCCNC(=O)[C@@H](N)CCCCNC(=O)COCCOCCNC(=O)COCCOCCNC(=O)CC[C@H](NC(=O)CCCCCCCCCOc1ccc(C(=O)O)cc1)C(=O)O)C(=O)O)C(C)C [Example 18] (H-H[Aib]EGTFTSDVSSYLEEQAAK([εLys-AEEA-AEEA-γGlu-Decanoyl(10-(4-HOOC-PhO))])EFIAWLVQGRK([εLys-AEEA-AEEA-γGlu-Decanoyl(10-(4-HOOC-PhO))])-OH; N-terminus and C-terminus assumed) | 75
